Assays:
BT-549 [1] = assay: normalised response (% of control), CellTiter-Glo; higher = more viable cells (100 = DMSO, 0 = benzethonium chloride kill control); conditions: incubation time: 72 h
How it was run: (§1)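 Each value is the plate-normalised signal at one concentration of the series. Breast cancer cell lines (20 µl suspension) were incubated 72 h in 384-well plates with compound at 5 concentrations in 10-fold steps over a compound-specific 10,000-fold range. CellTox Green and then CellTiter-Glo were read, and each plate was scaled to 0.1 % DMSO (100) and a positive kill control (0).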

CAL-120 [2] = assay: as above; conditions: incubation time: 72 h
How it was run: as §1

CAL-51 [3] = assay: as above; conditions: incubation time: 72 h
How it was run: as §1

HCC1143 [4] = assay: as above; conditions: incubation time: 72 h
How it was run: as §1

HCC1599 [5] = assay: as above; conditions: incubation time: 72 h
How it was run: as §1

MCF-10A [6] = assay: as above; conditions: incubation time: 72 h
How it was run: as §1

MFM-223 [7] = assay: as above; conditions: incubation time: 72 h
How it was run: as §1

SK-BR-3 [8] = assay: as above; conditions: incubation time: 72 h
How it was run: as §1

BT-474 = conditions: 72 h
How it was run: (§2)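 Breast cancer cell lines (20 µl suspension) were seeded into 384-well plates holding compound at 5 concentrations in 10-fold steps over a compound-specific 10,000-fold range, then incubated 72 h. Cell death was read first by CellTox Green fluorescence (485/520 nm), then viability by CellTiter-Glo luminescence after 10 min at room temperature. Each plate was normalised to 0.1 % DMSO and a positive kill control. EC50 was fitted from the dose-response curves and censored at the top concentration.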

BT-549 [9] = conditions: 72 h
How it was run: as §2

CAL-120 [10] = conditions: 72 h
How it was run: as §2

CAL-148 [11] = conditions: 72 h
How it was run: as §2

CAL-51 [12] = conditions: 72 h
How it was run: as §2

CAL-85-1 [13] = conditions: 72 h
How it was run: as §2

DU-4475 = conditions: 72 h
How it was run: as §2

HCC1143 [14] = conditions: 72 h
How it was run: as §2

HCC1599 [15] = conditions: 72 h
How it was run: as §2

HCC1937 = conditions: 72 h
How it was run: as §2

HDQ-P1 = conditions: 72 h
How it was run: as §2

Hs578T = conditions: 72 h
How it was run: as §2

MCF-10A [16] = conditions: 72 h
How it was run: as §2

MDA-MB-231 = conditions: 72 h
How it was run: as §2

MDA-MB-436 = conditions: 72 h
How it was run: as §2

MDA-MB-453 = conditions: 72 h
How it was run: as §2

MFM-223 [17] = conditions: 72 h
How it was run: as §2

SK-BR-3 [18] = conditions: 72 h
How it was run: as §2

CAL-148 [19] = conditions: 72 h; remark: listed apart in the source
Protocol: (§3)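 Drug sensitivity and resistance testing (DSRT) of breast cancer cell lines in 384-well plates, 5 concentrations in 10-fold dilutions over a compound-specific 10,000-fold range. After 72 h, cytotoxicity was read by CellTox Green fluorescence and viability by CellTiter-Glo luminescence (multiplexed), normalised to DMSO and benzethonium chloride controls. EC50 is the inflection point of the fitted dose-response curve (bottom asymptote free, so it can be relative for partial curves) and is censored at the highest tested concentration. Rows with DSS 0 (no meaningful response) were excluded.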

MFM-223 [20] = conditions: 72 h; remark: listed apart in the source
Protocol: as §3

HCC1143 [21] = conditions: 72 h; remark: listed apart in the source
How it was run: (§4)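 The reported EC50 was fitted from percent-inhibition dose-response curves and censored at the highest concentration. Breast cancer cell lines (20 µl suspension) were added to 384-well plates containing compound in 5 µl medium and incubated 72 h, and viability was read with 2.5 µl CellTiter-Blue over 2 h at 37 °C at 560/590 nm. Each plate was normalised to vehicle and a positive kill control and checked by Z'-factor, and rows with zero drug sensitivity score were dropped.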

HCC1599 [22] = conditions: 72 h; remark: listed apart in the source
How it was run: as §4

CAL-148 [23] = conditions: 72 h; remark: listed apart in the source
How it was run: as §4

CAL-85-1 [24] = conditions: 72 h; remark: listed apart in the source
Protocol: as §3

SMILES | normalised response (BT-549 [1]) [%] | normalised response (CAL-120 [2]) [%] | normalised response (CAL-51 [3]) [%] | normalised response (HCC1143 [4]) [%] | normalised response (HCC1599 [5]) [%] | normalised response (MCF-10A [6]) [%] | normalised response (MFM-223 [7]) [%] | normalised response (SK-BR-3 [8]) [%] | further results
Cc1ccc(NC(=O)c2ccc(CN3CCN(C)CC3)cc2)cc1Nc1nc(-c2cccnc2)cs1 [Masitinib] (10000 nM) | 59.5 | 80.8 | 59.1 | 80.5 | 49.6 | 91.6 | 73 | 31.8 | –
CNC(=O)c1cccc(-c2ccc3c(N4CCOC[C@@H]4C)nc(N4CCOC[C@@H]4C)nc3n2)c1 [AZD2014] | – | – | – | – | – | – | – | – | EC50, CellTiter-Glo (BT-474): 286 nM; EC50, CellTiter-Glo (BT-549 [9]): 228 nM; EC50, CellTiter-Glo (CAL-120 [10]): 224 nM; EC50, CellTiter-Glo (CAL-148 [11]): 395 nM; EC50, CellTiter-Glo (CAL-51 [12]): 131 nM; EC50, CellTiter-Glo (CAL-85-1 [13]): 290 nM; EC50, CellTiter-Glo (DU-4475): 1400 nM; EC50, CellTiter-Glo (HCC1143 [14]): 366 nM; EC50, CellTiter-Glo (HCC1599 [15]): 3620 nM; EC50, CellTiter-Glo (HCC1937): 285 nM; EC50, CellTiter-Glo (HDQ-P1): 120 nM; EC50, CellTiter-Glo (Hs578T): 459 nM; EC50, CellTiter-Glo (MCF-10A [16]): 493 nM; EC50, CellTiter-Glo (MDA-MB-231): 316 nM; EC50, CellTiter-Glo (MDA-MB-436): 121 nM; EC50, CellTiter-Glo (MDA-MB-453): 195 nM; EC50, CellTiter-Glo (MFM-223 [17]): 123 nM; EC50, CellTiter-Glo (SK-BR-3 [18]): 116 nM; EC50, CellTox Green (CAL-148 [19]): 130 nM; EC50, CellTox Green (MFM-223 [20]): > 10000 nM
CNC(=O)c1ccc(N2C(=S)N(c3ccc(C#N)c(C(F)(F)F)c3)C(=O)C23CCC3)cc1F [RD162] | – | – | – | – | – | – | – | – | EC50, CellTiter-Glo (BT-474): > 10000 nM
c1ccc2c(CCNc3ccc(Nc4ccncc4)cc3)c[nH]c2c1 [Serdemetan] (10000 nM) | 23.6 | 67.3 | 9.77 | 52.9 | 14.4 | 52.6 | 58 | 15.5 | –
CN(C)c1nc(N(C)C)nc(N(C)C)n1 [Altretamine] (10000 nM) | 102 | 100 | 109 | 100 | 112 | 107 | 106 | 108 | –
COc1cc2/c(=N/c3ccc(Br)cc3F)nc[nH]c2cc1OCC1CCN(C)CC1 [Vandetanib] | – | – | – | – | – | – | – | – | EC50, CellTiter-Glo (BT-474): 110 nM; EC50, CellTiter-Glo (CAL-120 [10]): > 1000 nM; EC50, CellTiter-Glo (CAL-51 [12]): > 1000 nM; EC50, CellTiter-Glo (MCF-10A [16]): 150 nM; EC50, CellTiter-Glo (MDA-MB-436): > 1000 nM; EC50, CellTiter-Glo (MFM-223 [17]): 370 nM; EC50, CellTiter-Blue viability (HCC1143 [21]): > 10000 nM
Oc1ccc2c(c1)CC[C@H](c1ccccc1)[C@@H]2c1ccc(OCCN2CCCC2)cc1 [Lasofoxifene] (1000 nM) | 95.2 | 114 | 78.9 | 97.7 | 99.2 | 117 | 102 | 105 | –
COc1cc2/c(=N/c3ccc(Br)cc3F)nc[nH]c2cc1OCC1CCN(C)CC1 [Vandetanib] (1000 nM) | 95 | 89.6 | 99.1 | 86.4 | 76.2 | 27.1 | 64.9 | 74.3 | –
CN(C)c1nc(N(C)C)nc(N(C)C)n1 [Altretamine] | – | – | – | – | – | – | – | – | EC50, CellTiter-Blue viability (HCC1599 [22]): 2950 nM
O=C(Nc1ccncc1)C(=O)c1cn(Cc2ccc(Cl)cc2)c2ccccc12 [Indibulin] (10000 nM) | 39.2 | 60.7 | 18.4 | 47.9 | 73.1 | 76.1 | 62.5 | 27 | –
COc1cc2ncnc(Nc3ccc(F)c(Cl)c3)c2cc1OCCCN1CCOCC1 [Gefitinib] | – | – | – | – | – | – | – | – | EC50, CellTiter-Glo (CAL-148 [11]): 788 nM; EC50, CellTiter-Glo (CAL-85-1 [13]): 714 nM; EC50, CellTiter-Glo (HCC1937): > 10000 nM; EC50, CellTiter-Glo (MCF-10A [16]): 84.2 nM; EC50, CellTiter-Blue viability (CAL-148 [23]): 1440 nM; EC50, CellTiter-Blue viability (HCC1599 [22]): 775 nM; EC50, CellTox Green (CAL-148 [19]): > 10000 nM; EC50, CellTox Green (CAL-85-1 [24]): 2900 nM
COCC[n+]1c2c(n(Cc3cnccn3)c1C)C(=O)c1ccccc1C2=O [YM155] (10000 nM) | -0.36 | -0.38 | -0.12 | -0.39 | -0.77 | -0.72 | 5.6 | -0.43 | –
CNC(=O)c1ccc(N2C(=S)N(c3ccc(C#N)c(C(F)(F)F)c3)C(=O)C2(C)C)cc1F [Enzalutamide] | – | – | – | – | – | – | – | – | EC50, CellTiter-Glo (CAL-51 [12]): 48.6 nM; EC50, CellTiter-Glo (MDA-MB-453): > 10000 nM
Cc1[nH]c2ccccc2c1CCNCc1ccc(/C=C/C(=O)NO)cc1 [Panobinostat] (1000 nM) | 14.4 | 9.89 | 8.29 | 13.4 | 6.35 | 11 | 29.4 | 0.27 | –
COCC1(CO)C(=O)C2CCN1CC2 (stereo not given) [Prima-1 Met] | – | – | – | – | – | – | – | – | EC50, CellTiter-Glo (BT-549 [9]): 2900 nM
COCC1(CO)C(=O)C2CCN1CC2 (stereo not given) [Prima-1 Met] (10000 nM) | 53.3 | 100 | 130 | 98 | 108 | 106 | 103 | 106 | –
O=C(/C=C/c1cccc(S(=O)(=O)Nc2ccccc2)c1)NO [Belinostat] (10000 nM) | 17.8 | 7.76 | 44.5 | 12.4 | 5.36 | 16.1 | 26.1 | 0 | –

Source: the supplement of paper PMC4862054
